# Results taken from paper PMC6571673, “Cytostatic and Cytotoxic Natural Products against Cancer Cell Models” (Molecules, 2019).
# How the values were obtained:
# [1] = tested on: BJ; experiment: CTG viability assay (CellTiter-Glo, 72 h); type: cell-based, human; conditions: Homo sapiens, BJ; CellTiter-Glo, 72 h; non-cancerous cells
# Procedure: (§1) All human cell lines were incubated at 37 °C in a 5% CO2 atmosphere and maintained under sterile conditions. Cells were tested for Mycoplasma (Lonza, Alpharetta, GA, USA) using the manufacturer’s conditions prior to experiments. Cell lines were purchased from American Type Culture Collection (ATCC, Manassas, VA, USA) or Leibniz-Institute Deutsche Sammlung von Mikroorganismen und Zellkulturen GmbH (DSMZ, Braunschweig, Germany) and cultured without antibiotics unless stated. Leukemia cells were cultured in RPMI and supplemented with 10% fetal bovine serum (FBS, Hyclone, Logan, UT, USA). SUP-B15, and KOPN-8 lines were cultured in RPMI supplemented with 10% FBS (Hyclone), 1% GlutaMAX™, 1% Pen/Step, and 0.1% β-mercaptoethanol. BJ cells were cultured in EMEM media supplemented with 10% FBS (Hyclone). Breast cancer cells (MDA-MB-231 & SUM149) were cultured in DMEM and Ham’s F12 respectively, supplemented with 10% FBS, 1% GlutaMAX™, 1% Pen/Step, and 2 µM cortisol/1 µg/mL insulin for SUM149. Both cells were grown to 80% confluence densities as recommended by ATCC. PBMCs were supplemented with concanavalin-A (5 μg/mL) and IL-2 (50 U/ml). To test general cytotoxicity, the following cell numbers were used for 384 well plates: KOPN-8 (ACC 552, infant human B cell precursor acute lymphoblastic leukemia with MLL-MLLt1/ENL fusion, 1000 cells/well), SUP-B15 (ACC389, human B cell precursor acute lymphoblastic leukemia of pediatric second relapse carrying the ALL-variant (m-bcr) of BCR-ABL1 fusion gene (e1-a2), 1600 cells/well), NALM-06 (DSMZ ACC128, non-T/non-B ALL at relapse with P15INK4B and P16INK4A deletions, 1200 cells/well), UoC-B1 (pediatric BCP-ALL at second relapse with TCF3/E2A-HFL fusion, 1000 cells/well), BJ (CRL-2522, normal human foreskin fibroblast cells, 400 cells/well) and PBMCs (periphery blood monocyte cells from healthy donors, IBC#BDC046, 10,000 cells/well).
# (§2) Cytotoxicity evaluation was performed using the CellTiter-Glo Luminescent Cell Viability Assay kit (G7570, Promega, Madison, WI, USA), according to the manufacturer’s instructions. Briefly, the cell concentrations used were experimentally determined to ensure logarithmic growth during the 72-h duration of the experiment, and avoid adverse effects on cell growth by DMSO exposure. 1 × 10^3–4.8 × 10^3 or 4 × 10^2–1.2 × 10^3 cells/well were seeded in 96 or 384-well white flat-bottomed plates (3610 or 8804BC, Corning, Corning, NY, USA) in 100 µL or 30 µL/well, respectively. The plates were incubated at 37 °C in 5% CO2 for 24 h before drugging. Test compounds (10 mM in DMSO) in nine 3-fold serial dilutions were dispensed via pintool (Biomek liquid handler, Beckman, Indianapolis, USA) to assay plates. The final concentration of DMSO was 0.3% (v/v) in each well. The positive controls included staurosporine (10 μM), and gambogic acid (10 μM). The plates were incubated for 72 h at 37 °C in 5% CO2, then quenched with CellTiter-Glo® (Promega, Madison, WI, USA, 50 µL/96 or 30 µL/384), centrifuged at 1000 rpm for 1 min and incubated at RT for 20 min. Luminescence was recorded with a plate reader (Envision, Perkin Elmer, Waltham, MA, USA). The mean luminescence of each experimental treatment group was normalized as a percentage of the mean intensity of untreated controls. EC50 values were calculated by Pipeline Pilot software (Accelrys, Enterprise Platform, San Diego, CA, USA).
# [2] = tested on: SUP-B15; experiment: CTG viability assay (CellTiter-Glo, 72 h); type: cell-based, human; conditions: Homo sapiens
# Procedure: as §1, §2
# [3] = tested on: KOPN-8; experiment: CTG viability assay (CellTiter-Glo, 72 h); type: cell-based; conditions: Homo sapiens, mean ± SEM of triplicates
# Procedure: as §1, §2
# [4] = tested on: NALM-06; experiment: CTG viability assay (CellTiter-Glo, 72 h); type: cell-based; conditions: Homo sapiens, mean ± SEM of triplicates
# Procedure: as §1, §2
# [5] = tested on: PBMC; experiment: CTG viability assay (CellTiter-Glo, 72 h); type: cell-based; conditions: Homo sapiens, non-cancerous cells
# Procedure: as §1, §2
# [6] = tested on: UoC-B1; experiment: CTG viability assay (CellTiter-Glo, 72 h); type: cell-based; conditions: Homo sapiens, mean ± SEM of triplicates
# Procedure: as §1, §2
# [7] = tested on: de novo protein synthesis in MDA-MB-231; experiment: EZClick in-cell-click de novo protein synthesis assay; type: cell-based, human; conditions: MDA-MB-231, 2 h exposure time
# Description: Protein synthesis is essential in cell growth, proliferation, signaling, differentiation, and death. […] The assay includes a robust chemical method based on an alkyne containing o-propargyl-puromycin probe, which stops translation by forming covalent conjugates with nascent polypeptide chains. Truncated polypeptides are rapidly turned over by the proteasome and can be detected based on the subsequent click reaction with a fluorescent azide. To test whether these compounds (4–14) induced de novo protein synthesis inhibition, compounds were tested for a 2 h exposure time, under the same conditions as the known protein synthesis inhibitor cycloheximide (CHX) in MDA-MB-231 cell model following an in-cell-click de novo protein synthesis assay.
# Biovision’s EZClick™ protein synthesis monitoring assay kit (EZClick™ Global Protein Synthesis Assay Kit, Catalog # K715-100, Milpitas, CA, USA) was used according to manufacturer’s protocol. The assay was conducted in 8-well chambered coverslips (ibidi GmbH µ-slide # 80826, Martinsried, Germany). Cells were plated at 2 × 10^4 per well and incubated at 37 °C for 12 h. Then, the cells were treated with compounds for 1.5 h and processed and stained according to protocol (representative images shown in Figure 4). Protein synthesis activity is shown in red, DNA staining is shown in green. Cycloheximide (CHX) was used as a positive control and DMSO as the negative control. Images shown were taken with a Marianas CSU-X spinning disk confocal imaging system (3i, Denver, CO, USA) configured with a Zeiss Axio Observer microscope (Carl Zeiss Inc., Thornwood, NY, USA) with diode lasers, at 63× magnification and resolution of 512 × 512 pixels (3i). For each field of view, an image stack consisting of 20 optical sections were taken at 63× magnification. The total intensity of red and green staining was quantified for the entire image stack. Six fields of view were analyzed per condition. Images shown represent a single optical section for each field of view. For each stack, the red intensity (protein synthesis) was adjusted to the green intensity (DNA content) in each image. The numbers from six images were used to calculate the average and standard deviation for each condition. Numbers were normalized to the negative control value arbitrarily set to one. The Slide viewer 6 software package was used for rendering and analysis of the images.
# [8] = tested on: MDA-MB-231; experiment: Propidium iodide (PI) assay, 48 h; type: cell-based, human; conditions: MDA-MB-231, 48 h
# Procedure: The first step was to evaluate if the compounds display cytotoxicity against the adherent cells. Propidium iodide (PI) assay was performed for the drug resistant solid tumor cellular models (triple negative breast cancer models: SUM149 and MDA-MB-231) for 48 h (Figure 5) [30, 31].
# [9] = tested on: SUM149; experiment: Propidium iodide (PI) assay, 48 h; conditions: SUM149, 48 h
# [10] = tested on: KOPN-8; experiment: Cell cycle analysis (PI DNA content, flow cytometry); type: cell-based, human; conditions: KOPN-8, 24 h; silvestrol 5 µM, 8 5 µM, 9 10 µM, 10 5 µM, 12 10 µM, 13 10 µM
# Procedure: (§3) The samples were probed with AnnexinV-FITC (Roche/Boehringer Mannheim, Indianapolis, IN, USA) according to the manufacturer’s instructions. KOPN-8 or SUB-P15 cells were plated (1.00 × 10^6 cells/plate) and incubated for 12 h and incubated at 37 °C. Then, cells were treated with compounds or controls for 24 h. Cells were stained with AnnexinV-FITC, PI and the staining profiles were determined with FACScan and Cell-Quest software. For cellular DNA content, the same cell treatment as above was performed. Then, cells were fixed in cold 75% ethanol, treated with RNase and then stained with PI solution (50 µg/mL). Cell cycle distribution was analyzed with the FACSCalibur analyzer (BD Biosciences, Franklin Lakes, NJ, USA) and Cell-Quest software. The percentage of DNA content at different phases of the cell cycle was analyzed with ModFit-software (version 5.0, Verity Software House, Topsham, ME, USA).
# [11] = tested on: SUP-B15; experiment: as above; type: cell-based, human; conditions: SUP-B15, 24 h; for cell cycle effect: silvestrol 5 µM, 8 5 µM, 9 10 µM, 10 5 µM, 12 10 µM, 13 10 µM
# Procedure: as §3
# [12] = tested on: KOPN-8; experiment: Annexin V/PI apoptosis flow cytometry assay; type: cell-based, human; conditions: KOPN-8, 24 h; for live cells (Annexin-, PI-): 8 5 µM, 9 10 µM, 10 5 µM, 12 10 µM, 13 10 µM; for late apoptotic state or cell death: 10 µM
# Procedure: as §3
# [13] = tested on: SUP-B15; experiment: Annexin V/PI apoptosis flow cytometry assay; type: cell-based, human; conditions: SUP-B15, 24 h; for live cells (Annexin-, PI-): 8 5 µM, 9 10 µM, 10 5 µM, 12 10 µM, 13 10 µM; for late apoptotic state or cell death: 10 µM
# Procedure: as §3
# [14] = tested on: human cancer cell lines such as oral carcinoma, melanoma, acute myelogenous leukemia, and cervical cancer; set-up: method as in PMID 15132542, PMID 22128783, PMID 24086701, PMID 19190247; conditions: several human cancer cell lines; cited from earlier work
# [15] = SUP-B15, mean ± SEM of triplicates
# [16] = SUP-B15, 72 h, mean ± SEM of triplicates
SMILES,EC50 [1] [µM],"EC50 [2, 15] [µM]",EC50 [3] [µM],EC50 [4] [µM],EC50 [5] [µM],EC50 [6] [µM],de novo protein synthesis inhibition [7],"EC50 [2, 16] [µM]",activity in PI assay [8],activity in PI assay [9],cell cycle effect [10],increase in the percentage of cells in S phase ([11]; 5 µM),reduction in the percentage of cells in G2/M phase ([11]; 5 µM),"live cells (Annexin-, PI-) [12]","live cells (Annexin-, PI-) [13]",cell cycle effect [11],IC50 values [14],late apoptotic state or cell death [12],late apoptotic state or cell death [13],reduction in the percentage of cells in the S phase ([11]; 10 µM)
COc1ccc(CC2c3cc(O)c(OC)cc3CCN2C)cc1O (centres unmarked) [Compound 4],> 46.8,38 ± 6.1,32.1 ± 3.5,18.3 ± 2.5,> 86.8,> 23.4,Partial protein synthesis inhibition,–,–,–,–,–,–,–,–,–,–,–,–,–
C/C=C1\C(=O)C[C@@]2(O)[C@@H]3CCC4=CC(=O)CC[C@]4(C)[C@H]3CC[C@]12C [Compound 14],> 43.3,–,> 43.3,> 43.3,> 43.3,> 21.6,no protein synthesis inhibition,17.2 ± 4.5,weakest activity,weakest activity,–,–,–,–,–,–,–,–,–,–
"COc1ccc2c(c[n+](C)c3c4cc5c(cc4ccc23)OCO5)c1OC [Compound 8, chelerythrine]",29.8,–,0.821 ± 0.22,1.9 ± 0.2,7.89,1.96 ± 0.28,no inhibition,2.77 ± 0.36,–,–,significant cell arrest in G1/G0,~ 20%,~ 10%,not viable,not viable,–,–,–,–,–
"COC(=O)[C@H]1[C@@H](O)[C@@]2(O)c3c(OC)cc(O[C@@H]4O[C@@H]([C@H](O)CO)CO[C@H]4OC)cc3O[C@@]2(c2ccc(OC)cc2)[C@@H]1c1ccccc1 [Silvestrol, reference compound]",–,–,–,–,–,–,–,–,–,–,cell arrest in the G1/G0 phase,–,–,–,–,cell arrest in the G1/G0 phase,low micromolar range,–,–,–
CC(C)(O)CC[C@@H](O)[C@](C)(O)[C@H]1CC[C@@]2(O)C3=CC(=O)[C@@H]4C[C@@H](O)[C@@H](O)C[C@]4(C)[C@H]3CC[C@]12C [Compound 11],> 43.3,–,> 43.3,> 43.3,> 43.3,> 21.6,no protein synthesis inhibition,29 ± 6,–,–,–,–,–,–,–,–,–,–,–,–
"CC(C)CC[C@@H](O)[C@](C)(O)[C@H]1CC[C@@]2(O)C3=CC(=O)[C@]4(O)C[C@@H](O)[C@@H](O)C[C@]4(C)[C@H]3[C@H](O)C[C@]12C [Compound 13, muristerone A]",> 43.3,–,> 43.3,0.518 ± 0.15,> 43.3,> 21.6,little to no protein synthesis inhibition,9.5 ± 2.1,–,–,minimal effect on the cell cycle,–,–,–,–,–,–,did not capture significant increase of late apoptotic state or cell death,did not capture significant increase of late apoptotic state or cell death,–
"C[C@H]([C@H](O)CCC(C)(C)O)[C@H]1CC[C@@]2(O)C3=CC(=O)[C@@H]4C[C@@H](O)[C@@H](O)C[C@]4(C)[C@H]3CC[C@]12C [Compound 12, ecdysone]",> 43.3,20.1 ± 3.2,> 43.3,> 43.3,> 43.3,> 21.6,little to no protein synthesis inhibition,–,–,–,minimal effect on the cell cycle,–,–,small decrease in live cells,small decrease in live cells,arrested G2/M,–,did not capture significant increase of late apoptotic state or cell death,did not capture significant increase of late apoptotic state or cell death,~ 10%
CCC1CN2CCc3cc(OC)c(OC)cc3C2CC1CC1NCCc2cc(O)c(OC)cc21 (centres unmarked) [Compound 6],> 43.3,9.83 ± 0.5,0.16 ± 0.05,18.4 ± 3.1,> 43.3,> 21.6,–,–,–,–,–,–,–,–,–,–,–,–,–,–
COc1cc2c(cc1O)[C@H]1Cc3ccc(OC)c(O)c3CN1CC2 [Compound 5],> 43.3,29 ± 3.7,32 ± 7.6,8.38 ± 1.8,> 43.3,17.3 ± 3.8,–,–,–,–,–,–,–,–,–,–,–,–,–,–
